Data on 15 compounds can be found in PMC6367750 (Future Medicinal Chemistry, 2018).

Where two headings read alike, the source gives them in different places.

One assay concerns the target ABL1-nonphosphorylated (Homo sapiens, UniProt P00519). The settings on record: read-out: Kd ABL1-nonphosphorylated; KdELECT; ref Zimmerman et al. [28]; cited from earlier work.
Another assay has as its target ABL1-phosphorylated (Homo sapiens, UniProt P00519). The settings on record: read-out: Kd ABL1-phosphorylated; KdELECT; ref Zimmerman et al. [28]; cited from earlier work.
For the next assay, the system named is FLT3 D835Y. The note with it: read-out: IC50 FLT3 D835Y; cited from earlier work.
Another assay deals with Molm13. The settings on record: cited from earlier work.
Assay [1] relates to MV4–11. The settings on record: cited from earlier work.
Assay [2] deals with MV4–11. The experiment in a line: Antiproliferative activity, CellTiter-Blue. The note with it: for AML cell growth inhibition: SAR discussion of Table 1. It counts as cell-based.
For assay [3], the target named is T1, FLT3-ITD (Homo sapiens, UniProt P36888).
T1 sequence (P36888 564-993): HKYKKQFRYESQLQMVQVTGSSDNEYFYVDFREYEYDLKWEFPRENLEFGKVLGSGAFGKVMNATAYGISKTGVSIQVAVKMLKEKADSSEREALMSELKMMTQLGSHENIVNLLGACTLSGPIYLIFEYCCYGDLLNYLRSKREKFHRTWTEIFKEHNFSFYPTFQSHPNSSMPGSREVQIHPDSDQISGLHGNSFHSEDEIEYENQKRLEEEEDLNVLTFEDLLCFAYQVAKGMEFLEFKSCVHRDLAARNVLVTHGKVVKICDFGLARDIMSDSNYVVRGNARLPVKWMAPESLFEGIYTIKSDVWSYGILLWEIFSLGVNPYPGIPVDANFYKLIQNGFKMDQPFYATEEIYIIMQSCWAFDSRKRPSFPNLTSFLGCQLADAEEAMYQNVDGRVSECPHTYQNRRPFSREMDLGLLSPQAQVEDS
The experiment in a line: FLT3-ITD kinase inhibition, ADP-Glo kinase assay. It is filed as biochemical. The note with it: SAR discussion of Table 1.

The target of assay [4] is T2, FLT3-ITD (Homo sapiens, UniProt P36888, ITD).
T2 sequence (P36888 564-993): T1 sequence (P36888 564-993)
The experiment in a line: FLT3-ITD kinase inhibition, ADP-Glo kinase assay. It counts as biochemical. The note with it: read-out: %FLT3 inhibition FLT3-ITD. On the technique in general: ADP-Glo first removes unused ATP, then detects ADP through luciferase.

The subject of a further assay is c-Kit. The note with it: read-out: IC50 c-Kit; cited from earlier work.
Another assay addresses JAK3 (Homo sapiens, UniProt P52333). Nature of the assay: DiscoverX ScanEdge kinase profiling. It is filed as binding. The settings on record: read-out: percent inhibition JAK3.
The target of another assay is JAK2 (Homo sapiens, UniProt O60674). The experiment in a line: DiscoverX ScanEdge kinase profiling. It counts as binding. The settings on record: read-out: percent inhibition JAK2.
Chain of JAK2 (O60674 840-1132 limits assumed): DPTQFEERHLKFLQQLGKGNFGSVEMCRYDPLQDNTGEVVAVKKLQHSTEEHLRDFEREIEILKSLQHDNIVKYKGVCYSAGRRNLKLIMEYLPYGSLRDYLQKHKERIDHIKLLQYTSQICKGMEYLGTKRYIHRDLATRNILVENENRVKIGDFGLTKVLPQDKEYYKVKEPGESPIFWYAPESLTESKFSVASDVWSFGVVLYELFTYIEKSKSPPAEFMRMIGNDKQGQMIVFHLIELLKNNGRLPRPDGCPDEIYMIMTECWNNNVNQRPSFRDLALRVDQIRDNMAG
The target of the next assay is MKNK2 (Homo sapiens, UniProt Q9HBH9). Nature of the assay: DiscoverX ScanEdge kinase profiling. It is filed as binding. The settings on record: read-out: percent inhibition MKNK2.
Chain of MKNK2 (Q9HBH9 whole entry): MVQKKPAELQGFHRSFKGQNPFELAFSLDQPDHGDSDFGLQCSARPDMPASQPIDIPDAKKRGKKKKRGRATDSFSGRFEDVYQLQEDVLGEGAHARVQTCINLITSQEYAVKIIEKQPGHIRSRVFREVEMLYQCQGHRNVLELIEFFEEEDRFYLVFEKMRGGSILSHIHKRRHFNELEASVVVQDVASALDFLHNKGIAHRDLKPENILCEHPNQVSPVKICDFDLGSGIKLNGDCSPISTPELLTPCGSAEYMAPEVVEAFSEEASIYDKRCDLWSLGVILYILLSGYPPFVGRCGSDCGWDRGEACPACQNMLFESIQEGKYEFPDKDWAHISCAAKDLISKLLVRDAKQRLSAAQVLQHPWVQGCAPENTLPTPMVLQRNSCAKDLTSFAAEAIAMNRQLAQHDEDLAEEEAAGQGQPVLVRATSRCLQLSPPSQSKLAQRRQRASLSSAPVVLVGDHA
The target of the next assay is T3, FLT3 (Homo sapiens, UniProt P36888).
T3 sequence (P36888 27-993): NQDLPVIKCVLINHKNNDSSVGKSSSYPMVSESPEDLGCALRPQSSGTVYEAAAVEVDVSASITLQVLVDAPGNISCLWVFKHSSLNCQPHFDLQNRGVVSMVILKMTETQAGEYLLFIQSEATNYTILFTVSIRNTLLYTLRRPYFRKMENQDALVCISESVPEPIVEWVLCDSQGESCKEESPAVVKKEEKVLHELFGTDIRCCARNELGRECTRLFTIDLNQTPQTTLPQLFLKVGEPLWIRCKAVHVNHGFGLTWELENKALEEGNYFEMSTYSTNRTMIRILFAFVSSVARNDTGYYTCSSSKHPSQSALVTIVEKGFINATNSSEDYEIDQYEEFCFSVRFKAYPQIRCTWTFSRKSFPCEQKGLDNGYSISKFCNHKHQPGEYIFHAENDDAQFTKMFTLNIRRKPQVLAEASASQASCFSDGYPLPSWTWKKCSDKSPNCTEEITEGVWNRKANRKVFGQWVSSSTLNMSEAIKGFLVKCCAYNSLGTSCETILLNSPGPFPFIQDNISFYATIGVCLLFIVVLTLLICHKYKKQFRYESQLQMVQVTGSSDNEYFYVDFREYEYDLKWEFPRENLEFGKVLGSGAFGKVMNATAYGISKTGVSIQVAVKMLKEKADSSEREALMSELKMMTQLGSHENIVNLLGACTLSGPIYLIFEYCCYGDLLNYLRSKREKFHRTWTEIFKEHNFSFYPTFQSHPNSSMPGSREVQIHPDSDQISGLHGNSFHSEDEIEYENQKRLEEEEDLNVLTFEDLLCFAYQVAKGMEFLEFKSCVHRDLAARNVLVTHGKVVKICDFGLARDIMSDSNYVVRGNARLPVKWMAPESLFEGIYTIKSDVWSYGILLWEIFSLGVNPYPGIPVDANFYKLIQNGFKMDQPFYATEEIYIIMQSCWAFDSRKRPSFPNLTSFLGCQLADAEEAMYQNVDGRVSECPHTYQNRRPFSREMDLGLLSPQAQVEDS
Nature of the assay: DiscoverX ScanEdge kinase profiling. It counts as binding. The settings on record: read-out: percent inhibition FLT3.

A further assay concerns TOPK. Nature of the assay: Western blot of TOPK protein in MV4–11 cells. It counts as cell-based. A general note: A western blot detects proteins with antibodies after separation by electrophoresis.
A further assay has as its system Molm14. Nature of the assay: Antiproliferative activity, CellTiter-Blue. It counts as cell-based. A general note: Resazurin is reduced to fluorescent resorufin, in cell work by metabolically active cells.
The subject of a further assay is phospho-STAT5. The experiment in a line: Western blot of phospho-STAT5 in MV4–11 cells. It is filed as cell-based.
The test system of assay [5] is MV4–11. The experiment in a line: Cell cycle analysis. The note with it: MV4–11, 24 h. It is filed as cell-based.
Assay [6] deals with Molm13-res (FLT3 (ITD, D835Y)). The experiment in a line: Antiproliferative activity, CellTiter-Blue. The note with it: 72 h. It is filed as cell-based.
Another assay relates to TOPK mRNA. The experiment in a line: Real-time PCR of TOPK mRNA in MV4–11 cells. It is filed as cell-based. The settings on record: 24 h.
The test system of assay [7] is K562, NOMO-1, HL60 and MOLT4. The experiment in a line: Antiproliferative activity, non-FLT3-driven leukemia cell lines. The note with it: 72 h, read-out: IC50 range over non-FLT3-driven leukemia cell lines. It counts as cell-based.
The mark [8] stands for this setting: Homo sapiens, MV4-11, 72 h, read-out: IC50 MV4–11, 72 h.
Where [9] appears, read: Homo sapiens, MOLM-14, 72 h, read-out: IC50 Molm14, 72 h.
The mark [10] stands for this setting: read-out: IC50 Molm13-res, 72 h.

Chain of ABL1-phosphorylated (P00519 whole entry): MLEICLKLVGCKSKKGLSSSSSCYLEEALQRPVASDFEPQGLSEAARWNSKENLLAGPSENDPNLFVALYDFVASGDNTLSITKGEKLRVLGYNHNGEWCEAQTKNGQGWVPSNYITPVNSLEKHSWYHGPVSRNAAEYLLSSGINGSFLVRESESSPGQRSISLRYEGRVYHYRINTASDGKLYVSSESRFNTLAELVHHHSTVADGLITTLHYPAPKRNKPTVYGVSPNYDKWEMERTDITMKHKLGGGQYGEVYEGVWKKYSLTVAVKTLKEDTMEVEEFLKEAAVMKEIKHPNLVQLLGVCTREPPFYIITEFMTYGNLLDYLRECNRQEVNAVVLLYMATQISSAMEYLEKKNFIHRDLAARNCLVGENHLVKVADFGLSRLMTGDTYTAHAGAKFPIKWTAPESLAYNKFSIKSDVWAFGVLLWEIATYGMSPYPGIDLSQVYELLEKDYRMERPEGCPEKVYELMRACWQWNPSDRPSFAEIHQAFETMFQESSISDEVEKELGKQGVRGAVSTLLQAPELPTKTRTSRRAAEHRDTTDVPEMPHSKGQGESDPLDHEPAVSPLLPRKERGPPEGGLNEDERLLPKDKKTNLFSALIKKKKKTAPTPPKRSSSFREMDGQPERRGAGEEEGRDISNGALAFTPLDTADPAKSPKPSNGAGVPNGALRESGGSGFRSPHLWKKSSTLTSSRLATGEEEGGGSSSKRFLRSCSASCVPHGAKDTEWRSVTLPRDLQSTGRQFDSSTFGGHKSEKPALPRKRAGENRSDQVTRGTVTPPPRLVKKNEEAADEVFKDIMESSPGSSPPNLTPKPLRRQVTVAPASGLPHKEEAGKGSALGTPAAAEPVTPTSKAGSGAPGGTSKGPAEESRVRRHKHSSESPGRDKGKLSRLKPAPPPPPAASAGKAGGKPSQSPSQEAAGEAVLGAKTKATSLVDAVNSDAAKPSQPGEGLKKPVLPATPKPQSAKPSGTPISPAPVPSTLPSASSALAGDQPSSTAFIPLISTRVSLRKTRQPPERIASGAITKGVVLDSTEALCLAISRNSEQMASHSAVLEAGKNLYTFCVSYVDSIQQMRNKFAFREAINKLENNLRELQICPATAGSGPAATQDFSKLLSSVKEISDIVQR
Chain of ABL1-nonphosphorylated (P00519 whole entry): as above
Chain of JAK3 (P52333 813-1124 limits assumed): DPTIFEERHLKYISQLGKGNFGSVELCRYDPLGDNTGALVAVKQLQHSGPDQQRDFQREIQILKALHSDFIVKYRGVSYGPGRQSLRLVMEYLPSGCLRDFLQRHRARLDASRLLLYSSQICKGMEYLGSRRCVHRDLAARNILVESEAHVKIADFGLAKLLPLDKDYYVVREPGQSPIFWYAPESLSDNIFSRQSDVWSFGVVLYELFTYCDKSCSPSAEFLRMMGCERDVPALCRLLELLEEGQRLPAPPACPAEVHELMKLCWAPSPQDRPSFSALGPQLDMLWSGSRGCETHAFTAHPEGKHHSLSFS

As a reminder, the Kd is the constant that tells how readily two partners part at equilibrium. What is called IC50 is the point on the concentration scale where inhibition reaches its midpoint. Turning to `CC1(COc2ccc3c(c2)ncn3-c2ccc3cccc(N4CCC(N)CC4)c3n2)COC1` [Crenolanib, crenolanib], the Kd on ABL1-nonphosphorylated was 140 nM; on ABL1-phosphorylated, 430 nM. Also, the IC50 with FLT3 D835Y is 6.9 nM.
With `CO[C@@H]1[C@H](N(C)C(=O)c2ccccc2)C[C@H]2O[C@]1(C)n1c3ccccc3c3c4c(c5c6ccccc6n2c5c31)C(=O)NC4` [PKC412 (midostaurin), midostaurin], the “effect on cell cycle” value in the assay on Molm13 and in the assay with MV4–11 [1] was “did not affect cell cycle pattern” each time.
What is called inhibition is the share of the control response that was lost under treatment. `FC(F)(F)c1n[nH]cc1-c1nc2ccc3[nH]ccc3c2c2c1CCCC2` [Compound 19]: the half-inhibitory concentration (IC50) in the assay with MV4–11 [2] (setting [8]) was 898 nM. Moreover, the “AML cell growth inhibition” value in the assay with MV4–11 [2] is “did not inhibit FLT3 enzymatic activity or AML cell growth”. The “FLT3 enzymatic inhibition” value at FLT3-ITD [3] is “did not inhibit FLT3 enzymatic activity”. For the same compound, the inhibition at 0.1 µM at FLT3-ITD [4] is 8%.
`c1cncc(-c2n[nH]cc2-c2nc3ccc4[nH]ncc4c3c3c2CCCC3)c1` [Compound 15]: the IC50 in the assay on MV4–11 [2] (setting [8]) turned out to be 1300 nM. In addition, the “AML cell growth inhibition” value with MV4–11 [2] was “inactive compounds”. Besides, the inhibition at 0.1 µM on FLT3-ITD [4] turned out to be 6%.
In the case of `c1ccc(-c2n[nH]cc2-c2nc3ccc4[nH]ncc4c3c3c2CCCC3)cc1` [Compound 14], in the assay on MV4–11 [2] (setting [8]), the IC50 was found to be 1450 nM. Moreover, the inhibition at 0.1 µM on FLT3-ITD [4] turned out to be 26%.
For `CCc1nc(C(N)=O)c(Nc2ccc(N3CCC(N4CCN(C)CC4)CC3)c(OC)c2)nc1NC1CCOCC1` [gilteritinib], in the assay on c-Kit, the IC50 was 230 nM.
In the case of `Nc1ncc(-c2ccncc2)nc1Nc1ccc2[nH]ccc2c1` [AKN-028], the “effect on cell cycle” value in the assay with MV4–11 [1] is recorded as “induce arrest in the G0/1 phase”.
With `c1[nH]nnc1-c1nc2ccc3[nH]ncc3c2c2c1CCCC2` [Compound 12], in the assay on MV4–11 [2] (setting [8]), the 50% inhibitory concentration (IC50) stood at 154 nM. Moreover, in the assay with MV4–11 [2], the “AML cell growth inhibition” value is listed as “not as active as HSD1169”. At FLT3-ITD [4], the inhibition at 0.1 µM is 56%.
For `c1cc(-c2n[nH]cc2-c2nc3ccc4[nH]ncc4c3c3c2CCCC3)cs1` [Compound 17], the IC50 in the assay with MV4–11 [2] (setting [8]) is 772 nM. The “AML cell growth inhibition” value in the assay on MV4–11 [2] was “inactive compounds”. Also, the inhibition at 0.1 µM on FLT3-ITD [4] came to 19%.
As for `C[C@H]1CC[C@H](n2c3cnccc3c3cnc(Nc4ccc5c(n4)CCN(C(=O)CO)C5)nc32)CC1` [AMG 925], in the assay with Molm13, the “effect on cell cycle” value was “induce arrest in the G0/1 phase”.
`NC1CCc2c(c(-c3c[nH]nc3C(F)(F)F)nc3ccc4[nH]ncc4c23)C1` (stereo not drawn) [Compound 7]: the IC50 in the assay with MV4–11 [2] (setting [8]) was found to be 132 nM. Also, the “AML cell growth inhibition” value with MV4–11 [2] was “less active”. Besides, the inhibition at 0.1 µM on FLT3-ITD [4] came to 71%.
For the compound `FC(F)(F)c1cc(-c2nc3ccc4[nH]ncc4c3c3c2CCCC3)n[nH]1` [Compound 13], the IC50 with MV4–11 [2] (setting [8]) is above 5000 nM. Also, the “AML cell growth inhibition” value in the assay with MV4–11 [2] is “inactive even at 1000 nM”. Besides, the inhibition at 0.1 µM on FLT3-ITD [4] stood at 5%.
`FC(F)(F)c1n[nH]cc1-c1nc2ccc3[nH]ncc3c2c2c1CCCC2` [HSD1169]: the inhibition at 0.5 µM at JAK3, at JAK2, on MKNK2 and at FLT3 was above 90% throughout. Besides, the “TOPK protein level (western blot, words)” value in the assay on TOPK is “reduction of TOPK protein in a dose-dependent manner”. The IC50 came out at 5 nM in the assay with Molm14 (setting [9]); 4.9 nM with Molm14 (read-out: IC50 Molm14, 72 h, listed as 4 (HSD1169)); 5 nM with MV4–11 [2] (setting [8]); 5.4 nM with MV4–11 [2] (read-out: IC50 MV4–11, 72 h, listed as 4 (HSD1169)); 5 nM in [6] (setting [10]); 5.1 nM in assay [6] (read-out: IC50 Molm13-res, listed as 4 (HSD1169)). The IC50 in assay [7] was in the range of 620 to 1860 nM. Further, the “phosphorylation of STAT5 (western blot, words)” value in the assay on phospho-STAT5 is on record as “inhibited the phosphorylation of STAT5”. Also, the “AML cell growth inhibition” value with MV4–11 [2] is “potent inhibitors of AML proliferation”. Further, the inhibition at 0.1 µM on FLT3-ITD [4] stood at 80%. The “effect on cell cycle” value in the assay on MV4–11 [5] was “dose-dependent increase in the percentage of cells in the G0/1 phase”. Besides, the “TOPK mRNA level” value with TOPK mRNA is recorded as “downregulation of TOPK mRNA”.
As for `OCCn1cc(-c2nc3ccc4[nH]ncc4c3c3c2CCCC3)cn1` [Compound 20], the IC50 in the assay with MV4–11 [2] (setting [8]) came to 1390 nM. Also, the “AML cell growth inhibition” value in the assay with MV4–11 [2] was “inactive compounds”. Further, the inhibition at 0.1 µM at FLT3-ITD [4] is 27%.
As for `Cc1n[nH]cc1-c1nc2ccc3[nH]ncc3c2c2c1CCCC2` [Compound 9], the IC50 in the assay with Molm14 (setting [9]) came to 64.1 nM; in the assay with MV4–11 [2] (setting [8]), 61.5 nM; in assay [6] (setting [10]), 86.7 nM. For the same compound, in the assay with MV4–11 [2], the “AML cell growth inhibition” value is on record as “potent inhibitors of AML proliferation”. Also, the inhibition at 0.1 µM at FLT3-ITD [4] worked out at 54%.
